From US20210149304A1, “PHOTOSENSITIVE RESIN COMPOSITION, CURED FILM, ELEMENT COMPRISING CURED FILM, ORGANIC EL DISPLAY DEVICE COMPRISING CURED FILM, METHOD FOR PRODUCING CURED FILM, AND METHOD FOR PRODUCING ORGANIC EL DISPLAY DEVICE” (TORAY INDUSTRIES, INC., priority 2017, published 2021) come the findings set out here.

As usually defined, the pKa is the pH at which an ionisable group is half protonated. A high value points to a weaker acid or stronger base.

The first data set in a line: physchem.
Conditions: not given
On the procedure: The acid dissociation constant (pKa) is a logarithmic value of the inverse number of the acid dissociation constant pKa in a dilute aqueous solution at 25° C. In cases of multistep dissociation, the dissociation constant in the first step (that is, pKa1) is employed.
In the compound (E2) having a phenolic hydroxyl group indicating an acid dissociation constant pKa of 6.0 to 9.5 at 25° C., the acid dissociation constant (pKa) is a logarithmic value of the inverse number of the acid dissociation constant in a dilute aqueous solution at 25° C. In cases of multistep dissociation, the dissociation constant in the first step (that is, pKa1) is employed. […] The acid dissociation constant pKa is preferably not less than 6.3, more preferably not less than 6.6, still more preferably not less than 7.0.
Compound `Cc1cc(O)c(C(C)(C)C)cc1C(C)CC(c1cc(C(C)(C)C)c(O)cc1C)c1cc(C(C)(C)C)c(O)cc1C` (stereo not drawn) [AO-30, 1,1,3-tris(2-methyl-4-hydroxy-5-tert-butylphenyl)butane] showed a pKa of 11.6.
As to `Cc1cc(CCC(=O)OCC(C)(C)C2OCC3(CO2)COC(C(C)(C)COC(=O)CCc2cc(C)c(O)c(C(C)(C)C)c2)OC3)cc(C(C)(C)C)c1O` (stereo not drawn) [AO-80, 3,9-bis[1,1-dimethyl-2-[(3-tert-butyl-4-hydroxy-5-methylphenyl)propionyloxy]ethyl]-2,4,8,10-tetraoxaspiro[5.5]undecane], the pKa was 12.
Regarding `Oc1ccc(C(c2ccc(O)cc2)(C(F)(F)F)C(F)(F)F)cc1` [E(i), bisphenol AF], the pKa turned out to be 8.7 and the “pKa (acid dissociation constant)” value came out at 8.7.
In turn, `O=C(c1ccc(O)cc1)c1ccc(O)cc1` [E(iii), 4,4′-dihydroxybenzophenone] registered a pKa of 7.7.
As for `O=C(c1ccccc1O)c1ccccc1O` [E(iv), 2,2′-dihydroxybenzophenone], the pKa stood at 7.3.
`Oc1ccc(C(F)(F)F)cc1` [E(v), 4-(trifluoromethyl)phenol]: the pKa worked out at 8.5.
`CC(c1ccc(O)cc1)(c1ccc(O)cc1)c1ccc(O)cc1` [E(vi), 1,1,1-tris(4-hydroxyphenyl)ethane] had a pKa of 10.

The data set is the same for the next values; noted with them: at 25° C., dilute aqueous solution, first step pKa1.
Regarding `O=S(=O)(c1ccc(O)cc1)c1ccc(O)cc1` [E(ii), bisphenol S], the “pKa (acid dissociation constant)” value came out at 7.6.
